The results in this text go back to publication PMC7248907, “Naphthoquinones as Covalent Reversible Inhibitors of Cysteine Proteases—Studies on Inhibition Mechanism and Kinetics” (Molecules, 2020).

Series [1] concerns the target T1, NS3/NS2B protease of the Dengue virus (DENV PR) (Dengue virus type 2, UniProt P29990).
T1 construct: the NS3/NS2B protease of the Dengue virus (DENV PR)
Nature of the series: Fluorometric DENV NS2B/NS3 protease assay (Boc-Gly-Arg-Arg-AMC). Format: biochemical. To be noted: at 20 µM inhibitor; read-out: DENV PR % inh.

For series [2], the target named is T2, cathepsin L (Homo sapiens, UniProt P07711). The series is described as follows: Fluorometric cathepsin L inhibition assay (Cbz-Phe-Arg-AMC). Set-up: purchased Calbiochem, Merck Millipore. The class given is biochemical. As to conditions: for Cath. L t1/2: half-life of final complex, 0.693/k4; for Cath. L ΔEreac: reaction energy of second inhibition step from k3/k4; for Cath. L k3 / Cath. L k4: second inhibition step; for Cath. L k3: forward rate; for Cath. L k4: off-rate; for inhibition at 20 µM: at 20 µM inhibitor, read-out: Cath. L % inh.
T2 sequence (P07711 114-333): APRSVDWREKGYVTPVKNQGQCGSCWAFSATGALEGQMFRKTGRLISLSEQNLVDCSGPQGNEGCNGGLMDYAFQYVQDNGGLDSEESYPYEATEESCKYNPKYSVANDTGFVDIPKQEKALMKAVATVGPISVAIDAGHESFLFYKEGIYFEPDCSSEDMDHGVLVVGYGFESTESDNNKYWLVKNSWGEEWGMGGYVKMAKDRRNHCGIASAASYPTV

In series [3] the target is T3, rhodesain (Trypanosoma brucei rhodesiense, UniProt Q95PM0).
T3 construct: made in house; host or cells: Pichia pastoris
T3 sequence (Q95PM0 entry or part of it): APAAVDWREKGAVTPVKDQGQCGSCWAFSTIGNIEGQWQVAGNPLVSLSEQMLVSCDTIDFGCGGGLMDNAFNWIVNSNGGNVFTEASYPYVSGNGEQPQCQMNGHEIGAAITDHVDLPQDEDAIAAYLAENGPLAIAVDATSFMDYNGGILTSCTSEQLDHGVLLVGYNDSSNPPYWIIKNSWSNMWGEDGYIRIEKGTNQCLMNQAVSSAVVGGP
The series is described as follows: Dialysis assay (reversibility), rhodesain. Format: biochemical. To be noted: 20×IC50, 30 min preincubation, dialysis up to 120 min.

In series [4] the target is T2, cathepsin L. The series is described as follows: Dilution assay (reversibility), cathepsin L. As to conditions: 5×IC50, 15 min incubation, 50-fold dilution.
Method: Then, the mixture was diluted by 50-fold to yield a final inhibitor concentration of 10% of the IC50 concentration.
Fluorometric assays for cathepsin B and cathepsin L (Calbiochem, Merck
Millipore) were performed as described previously.[7,8] Cbz-Phe-Arg-AMC was used as substrate
(final conc.: 100 μM for cathepsin B, 6.5 μM for cathepsin L) in assay buffer (50 mM Tris, pH 6.5,
Recombinantly expressed rhodesain (0.9 mg/mL) or cathepsin L (Calbiochem, Merck Millipore) were
diluted 1:100 in enzyme buffer (rhodesain: 50 mM sodium acetate, pH 5.5, 5 mM EDTA, 200 mM
NaCl and 2 mM DTT; cathepsin L: 50 mM Tris, pH 6.5, 5 mM EDTA, 200 mM NaCl and 2 mM DTT)
and preincubated for 1 h at room temperature. 54 μL of the respective enzyme solution was treated
enzyme-inhibitor reactions were incubated for 15 min at room temperature to ensure complete
inhibition. 1.2 μL of each reaction mixture was diluted with 57.3 μL of the respective assay buffer
(rhodesain: 50 mM sodium acetate, pH 5.5, 5 mM EDTA, 200 mM NaCl, 0.005% Brij; cathepsin L:
Phe-Arg-AMC in DMSO (final conc.: 10 μM for rhodesain, 6.5 μM for cathepsin L) and monitored
with a Tecan Infinite M200 Pro plate reader (λ ex: 380 nm/λ em: 460 nm).
The target of series [5] is T4, cathepsin B (Homo sapiens, UniProt P07858).
T4 construct: purchased Calbiochem, Merck Millipore
Nature of the series: Fluorometric cathepsin B inhibition assay (Cbz-Phe-Arg-AMC). Format: biochemical. As to conditions: at 20 µM inhibitor; read-out: Cath. B % inh.

In series [6] the target is T3, rhodesain. The series is described as follows: Dilution assay (reversibility), rhodesain. The class given is biochemical. As to conditions: 5×IC50, 50-fold dilution; data not shown.
The target of series [7] is T3, rhodesain. Nature of the series: biochemical. As to conditions: for fold improvement of rhodesain inhibition, acid compared to benzyl ester: 3 compared to 1, 4 compared to 2; for Rhod. t1/2: half-life of final complex, 0.693/k4; for Rhod. ΔEreac: reaction energy of second inhibition step from k3/k4; for Rhod. k3 / Rhod. k4: second inhibition step; for Rhod. k3: forward rate; for Rhod. k4: off-rate; for inhibition at 20 µM: at 20 µM inhibitor, read-out: Rhod. % inh. Format: biochemical.

In series [8] the target is T3, rhodesain. The series is described as follows: Hydrolysis assay UV-Vis (ester hydrolysis by rhodesain). The class given is biochemical. On the procedure: Since the esters and the free carboxylic acid have different UV-Vis characteristics, we recorded time-dependent absorbance spectra at 400 nm (Figure 9).
Figure 9 Kinetic analysis of the ester hydrolysis by rhodesain. […]
Hydrolysis assay – UV-Vis:
To a solution of rhodesain (10 μg/mL) in 197.5 μL reaction buffer (50 mM sodium acetate, pH 5.5,
(§1) (20 mM) was added and the absorbance was monitored for 2 h at 25 °C with a Tecan Spark 10M (λabs: […]

For series [9], the target named is T3, rhodesain. Nature of the series: Hydrolysis assay LC/MS (ester hydrolysis by rhodesain). The class given is biochemical. To be noted: 24 h incubation with rhodesain, 25 °C. The protocol: As reported previously for benzyl esters of the tested dipeptide sequence, we raised the hypothesis also in the current case, that the observed ester cleavage of the rhodesain–inhibitor adduct (Figure 5) might occur by rhodesain-catalyzed enzymatic hydrolysis. To verify this hypothesis, we incubated compounds 1, 2 (benzyl esters), compound 6 (methyl ester) and compound 8 (tert-butyl ester) for 24 h with rhodesain. The reaction mixtures were subsequently analyzed by LC–MS.
In fact, we found ester hydrolysis for the benzyl and methyl esters, but not for the tert-butyl ester. […] The unconverted ester 1 was eluted at tR = 3.19 min. Upon incubation with rhodesain, a peak at tR = 1.03 min was observed matching the retention time of the reference acid 3. […]
triplicates at different time points (0, 30, 60, 120 min) and reactions were initiated by the addition of […]
Hydrolysis assay – LC/MS:
Hydrolysis assays were performed as described previously.[12] To a solution of rhodesain […]
2 mM DTT) 1 μL of either cpd. 1, 2, 6 or 8 in DMSO (20 mM) was added and the mixtures was incubated for 24 h at 25 °C. As negative reaction control, 99 μL assay buffer was treated with pure cpd. 1, 2, 6 or 8 in DMSO (20 mM) without rhodesain. […]
as §1

Where [10] appears, read: approximate value, read-out: Ki of initial non-covalent complex, CathL.
The mark [11] stands for this setting: final complex, Dixon fit of vS vs [I], read-out: Cath. L Ki^* Method 2.
[12] abbreviates: final high-affinity complex, Ki/(1+k3/k4), read-out: Cath. L Ki^* Method 1.
Setting [13] is: initial complex, Dixon fit of vi vs [I], read-out: Cath. L Ki Method 2.
Setting [14] is: initial non-covalent complex, from kobs vs [I], read-out: Cath. L Ki Method 1.
[15] abbreviates: reversible, time-dependent inhibition, final high-affinity complex, mean of method 1 and method 2, read-out: Cath. L Ki^*.
[16] abbreviates: approximate value, read-out: Ki of initial non-covalent complex, Rhod.
[17] abbreviates: final complex, Dixon fit of vS vs [I], read-out: Rhod. Ki^* Method 2.
[18] abbreviates: final high-affinity complex, Ki/(1+k3/k4), read-out: Rhod. Ki^* Method 1.
[19] abbreviates: initial complex, Dixon fit of vi vs [I], read-out: Rhod. Ki Method 2.
Setting [20] is: initial non-covalent complex, from kobs vs [I], read-out: Rhod. Ki Method 1.
The mark [21] stands for this setting: reversible, time-dependent inhibition, final high-affinity complex, mean of method 1 and method 2, read-out: Rhod. Ki^*.

Several values for one entry are separate records, joined by “and”; a condition that tells them apart may be missing. Equal entries are not always repeated. Entries after “also recorded” stand apart in the source; their conditions may differ. Where two headings read alike, the source gives them in different places.

T1 sequence (P29990 1346-1475): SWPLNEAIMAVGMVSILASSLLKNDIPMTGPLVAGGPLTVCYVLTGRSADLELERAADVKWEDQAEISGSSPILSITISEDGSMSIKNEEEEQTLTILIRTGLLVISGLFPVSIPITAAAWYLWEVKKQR
T1 sequence (P29990 1476-1653): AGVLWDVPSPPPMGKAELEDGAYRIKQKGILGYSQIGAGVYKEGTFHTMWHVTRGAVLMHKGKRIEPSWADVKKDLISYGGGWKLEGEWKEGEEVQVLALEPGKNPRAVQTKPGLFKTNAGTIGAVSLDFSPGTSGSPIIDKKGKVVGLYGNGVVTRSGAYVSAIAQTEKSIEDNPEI

Turning to `CC(C)C[C@H](NC(=O)[C@H](Cc1ccccc1)NC1=C(C#N)C(=O)c2ccccc2C1=O)C(=O)O` [Compound 4], the figures for the inhibition at 20 µM in series [1] and in series [5] were 38% and 45%, respectively. Moreover, the Ki is about 100 nM in [2] (setting [10]); 15 nM in series [2] (setting [11]); 19 nM in series [2] (setting [12]); 91 nM in series [2] (setting [13]); 129 nM in series [2] (setting [14]); 17 nM in series [2] (setting [15]). For the same molecule, the Ki in series [7] (setting [16]) was about 0.4 nM; in series [7] (setting [17]) it was 0.2 nM; in series [7] (setting [18]) it was 0.1 nM; in series [7] (setting [19]), 0.32 nM; in series [7] (setting [20]), 0.47 nM; in series [7] (setting [21]), ~0.15 nM and 0.15 nM. Also, the “Cath. L t1/2” value in series [2] was determined as 12.8 min. In series [2], the “Cath. L ΔEreac” value is -1.1 kcal/mol. For the same molecule, the “Cath. L k3” value in [2] stood at 0.0051 s⁻¹. Besides, the “Cath. L k4” value in [2] worked out at 0.0009 s⁻¹. Moreover, in [3], the “recovery of rhodesain activity by dialysis” value (from here on “recovery”) is listed as “the enzymatic activity was restored; also recorded: only slow reactivation”. Moreover, the “reactivation of enzyme activity after dilution, cathepsin L” value (“reactivation … cathepsin L” for short) in [4] is reported as “full reactivation”. Further, the “reactivation of enzyme activity after dilution, rhodesain” value (shortened to “reactivation … rhodesain”) in [6] was “full reactivation”. Besides, in series [7], the “fold improvement of rhodesain inhibition, acid compared to benzyl ester” value is given as “ca. 1200 fold”. Further, the “Rhod. t1/2” value in series [7] was found to be 19.25 min. Also, the “Rhod. ΔEreac” value in [7] is -0.89 kcal/mol. In addition, the “Rhod. k3” value in series [7] was found to be 0.0027 s⁻¹. Further, in [7], the “Rhod. k4” value amounted to 0.0006 s⁻¹.
Regarding `CC(C)C[C@H](NC(=O)[C@H](Cc1ccccc1)NC1=C(Cl)C(=O)c2ccccc2C1=O)C(=O)OC(C)(C)C` [Compound 7], the inhibition at 20 µM worked out at 38% in series [2] and 51% in series [7].
Take `CN1CCN(C(=O)N[C@@H](Cc2ccccc2)C(=O)N[C@H](/C=C/S(=O)(=O)c2ccccc2)CCc2ccccc2)CC1` [K11777, reference compound]: in [3], the “recovery” value is “the enzyme activity could not be recovered”. Further, the “reactivation … cathepsin L” value in series [4] is “no recovery was observed”.
Turning to `CC(C)C[C@H](NC(=O)[C@H](Cc1ccccc1)NC1=C(C#N)C(=O)c2ccccc2C1=O)C(=O)OC(C)(C)C` [Compound 8], the inhibition at 20 µM in series [2] is 21%; in series [7], 38%.
In the case of `COC(=O)[C@H](CC(C)C)NC(=O)[C@H](Cc1ccccc1)NC1=C(C#N)C(=O)c2ccccc2C1=O` [Compound 6], in [2], the inhibition at 20 µM came out at 40%. The half-life at 250 µM in series [8] (Trypanosoma brucei rhodesiense, rhodesain enzyme solution, pH 5.5, absorbance at 400 nm vs time, read-out: t1/2 of ester hydrolysis by rhodesain) was 10.2 min. Further, the “turnover curve of absorbance at 400 nm vs. time with rhodesain” value in [8] (monitored for 2 h at 25 °C) was “hyperbolic turnover curves”. Further, the Ki in [7] (read-out: Rhod. Ki) amounted to 1240 nM.
As to `COC(=O)[C@H](CC(C)C)NC(=O)[C@H](Cc1ccccc1)NC1=C(Cl)C(=O)c2ccccc2C1=O` [Compound 5], the inhibition at 20 µM in series [2] is 45%; in series [7] it was 48%.
With `CC(C)C[C@H](NC(=O)[C@H](Cc1ccccc1)NC1=C(Cl)C(=O)c2ccccc2C1=O)C(=O)O` [Compound 3], the inhibition at 20 µM amounted to 43% in series [1] and 25% in [5]. In addition, the “fold improvement of cathepsin L inhibition, acid compared to benzyl ester” value in series [2] (3 compared to ester 1) was 20 fold. The Ki in series [2] (setting [10]) was about 400 nM; in series [2] (setting [11]), 61 nM; in series [2] (setting [12]), 53 nM; in [2] (setting [13]), 345 nM; in series [2] (setting [14]) it was 443 nM; in series [2] (setting [15]), 57 nM. The Ki was about 60 nM in [7] (setting [16]); 36 nM in series [7] (setting [17]); 11 nM in [7] (setting [18]); 63 nM in [7] (setting [19]); 57 nM in [7] (setting [20]); 24 nM in [7] (setting [21]). Further, the “Cath. L t1/2” value in series [2] turned out to be 16.5 min. Moreover, the “Cath. L ΔEreac” value in series [2] is -1.2 kcal/mol. Also, the “Cath. L k3” value in [2] came out at 0.0052 s⁻¹. For the same molecule, the “Cath. L k4” value in series [2] stood at 0.0007 s⁻¹. Besides, the “recovery” value in series [3] is listed as “the enzymatic activity was restored”. Besides, in [4], the “reactivation … cathepsin L” value was “full reactivation”. Further, the “reactivation … rhodesain” value in series [6] is recorded as “full reactivation”. Besides, the “fold improvement of rhodesain inhibition, acid compared to benzyl ester” value in series [7] is recorded as “ca. 120 fold”. Further, the “Rhod. t1/2” value in series [7] was determined as 19.25 min. In addition, in [7], the “Rhod. ΔEreac” value was -0.85 kcal/mol. The “Rhod. k3” value in series [7] was found to be 0.0025 s⁻¹. For the same molecule, the “Rhod. k4” value in series [7] was found to be 0.0006 s⁻¹.
On to `CC(C)CC(NC(=O)C(Cc1ccccc1)NC1=C(Cl)C(=O)c2ccccc2C1=O)C(=O)OCc1ccccc1` [Compound 1, Benzyl-N-(3-chloro-1,4-dioxo-1,4-dihydronaphthalen-2-yl)-L-phenylalanyl-L-leucinate], for which the values for the inhibition at 20 µM in series [1] and in [5] were 41% and 53%, respectively. For the same molecule, the Ki was 1140 nM in series [2] (from plots of IC50 vs substrate concentration (Cheng–Prusoff), read-out: Cath. L Ki) and 2900 nM in series [7] (read-out: Rhod. Ki). In [4], the “reactivation … cathepsin L” value is reported as “full reactivation; also recorded: nearly fully recovered”. The “reactivation … rhodesain” value in [6] is 40–50%. Besides, the “ester hydrolysis by rhodesain (LC–MS)” value in series [9] is on record as “rhodesain-catalyzed ester hydrolysis”.
